# Reference: US20080226685A1, “Product and Method for Controlling Flying Insects” (Reckitt Benckiser (Australia) Pty Limited, priority 2003, published 2008)
# Read-outs that look alike come from different tables or passages of the source.
# Tests used:
# [1] = cited from earlier work
# [2] = Emanation rate from 30 gsm paper dosed with different solvents (Example 8); type: physicochemical; details: 14 mg on A4 30 gsm paper, 28° C.
# Experimental: A study of the metofluthrin emanation rate from 30 gsm paper dosed with different solvents was made.
# White (A4) paper (30 gsm) having a surface area of […] was dosed with metofluthrin (14 mg) prepared in a range of solvents, as listed below. The papers were aged in a chamber at 28° C. with low air flow for up to a maximum of 168 hours. The amount of metofluthrin remaining on the paper substrate was measured from time 0 hours to 168 hours. The following solvents were used:
# The inventors have concluded that linear release kinetics are observed for metofluthrin emanating from paper substrates and accordingly, the line of best fit was fitted to obtain the linear equation to enable the rate of emanation to be determined.
# [3] = tested on: Aedes aegypti mosquitoes; assay: Knockdown studies in a 40 m^3 test chamber with paper dosed with metofluthrin; type: in vivo
# Experimental: The inventors have carried out a number of knockdown studies for the control of mosquitoes using paper surfaces impregnated and/or dosed with the vapour active insecticide metofluthrin. The active was applied to each paper surface as a solution in acetone/ethanol (1:1).
# Tests were carried out in a 40 m^3 test chamber. The temperature was approximately 28° C. Mixed sex Aedes aegypti mosquitoes were used, aged for 7-10 days after emergence. Up to 200 mosquitoes were introduced into the chamber for each test. Three replicates were done for each treatment. Knocked down mosquitoes were collected at the end of each assessment period and counted.
# Knockdown studies against the Dengue mosquito Aedes aegypti using three surface areas a) A2, b) A3 and c) A4 of 18 gsm paper in the above test chamber were carried out. Each paper was treated with 150 mg of metofluthrin. A mosquito coil containing 0.04% Prallethrin was included as a reference control.
# A knockdown study against the Dengue mosquito Aedes aegypti using aged paper was conducted. The test involved treating 18 gsm paper of A4 surface area with 2 mg of metofluthrin at 28° C. for up to 12 hours. The treated paper was hung in the centre of the above chamber. A mosquito coil containing 0.04% prallethrin was included in the trial as a reference control.
# [4] = Emanation rate from 18 gsm paper honeycomb, wet dosed in Norpar 12 (Example 7); type: physicochemical; details: 30 mg on 18 gsm honeycomb, estimated surface area 2199 cm^2, wet dosed in Norpar 12, 28° C., low airflow
# Experimental: A study involving dosing 18 gsm paper configured into a honeycomb format with an estimated surface area of 2199 cm^2 with metofluthrin (30 mg) was made to determine the emanation rate from this substrate.
# The metofluthrin was dissolved in Norpar 12 and dosed on to the substrate using the wet dosing technique. The papers were hung and aged in a chamber at 28° C. with low airflow for up to a maximum of 80 hours. The amount of metofluthrin remaining on the paper substrate was measured from time 0 hours to 80 hours. The plot obtained for the amount of metofluthrin remaining on samples as a function of time was used to calculate the release rate from this format.
# [5] = Stability and packaging suitability, storage at 55° C. (Example 10); type: physicochemical
# Experimental: The stability and packaging suitability of various materials was studied. In these studies, metofluthrin (14 mg) was applied to A4 sized 30 gsm paper substrates via wet and dry application at ambient temperature. The samples were placed in pouches prepared from the packaging materials under investigation, sealed tightly and stored at 55° C. After periods of one and two weeks, samples were removed from storage and the dosed paper substrates were measured for metofluthrin content. The packaging materials studied were glass, PVC, amorphous PET (APET), crystalline PET (CPET), aluminium foil, heat sealable polyester films, acrylonitrile methyl acrylate copolymer and PEPET. For the wet dosing of metofluthrin on the paper substrate, the metofluthrin was dissolved in Exxsol D80 or Norpar 12 and the resulting solution applied to the substrate. For dry application, the metofluthrin was dissolved in acetone/ethanol (1:1 by volume) and applied to the substrate. The solvent was then allowed to evaporate over a period of 5-10 minutes.
# [6] = Emanation rate from 50 gsm A4 paper dosed with different amounts (Example 6); type: physicochemical; details: A4 50 gsm paper, dry dosing in acetone/ethanol (1:1), 25 mg to approximately 5 mg, 28° C., low air flow
# Experimental: A study involving dosing 50 gsm paper with different amounts of metofluthrin was made to investigate the affect on the emanation rate from this substrate. Three samples of white (A4) paper (50 gsm) each having a surface area of 1250 cm^2 were dosed with metofluthrin (25, 20 and 14 mg) dissolved in acetone/ethanol (1:1) using the dry dosing technique. The papers were aged in a chamber at 28° C. with low air flow for up to a maximum of 214 hours. The amount of metofluthrin remaining on the paper substrate was measured from time 0 hours to 214 hours. The plot obtained for the emanation rate of metofluthrin from the 25 mg dosed samples was used to estimate the time it would take for 20 and 14 mg of metofluthrin to remain on the samples.
# [7] = Emanation rate from 18 gsm paper dosed with different solvents (Example 9); type: physicochemical; details: 14 mg on A4 18 gsm tissue paper, 28° C.
# Experimental: A study of the metofluthrin emanation rate from 18 gsm paper dosed with different solvents was made.
# Tissue paper (18 gsm) having an effective surface area of 1250 cm^2 (A4) was dosed with metofluthrin (14 mg) prepared in a range of solvents. The papers were then aged in a chamber at 28° C. with low airflow for up to a maximum of 168 hours. The amount of metofluthrin remaining on the paper substrate was measured from time 0 hours to 168 hours. The following solvents were used:
# The inventors have concluded that linear release kinetics are observed for metofluthrin emanating from paper substrates and accordingly, the line of best fit was fitted to obtain the linear equation to enable the rate of emanation to be determined: […]
structure (smiles),measurement,setting,value
Cc1c(F)c(F)c(COC(=O)[C@@H]2[C@H](/C=C(\Cl)C(F)(F)F)C2(C)C)c(F)c1F (racemic) [tefluthrin],vapour pressure (volatility at ambient temperature),[1]; 20° C.,8.4 mPa
same,vapour pressure (volatility at ambient temperature),[1]; 40° C.,50 mPa
"CC=CC1C(C(=O)OCc2c(F)c(F)c(COC)c(F)c2F)C1(C)C (racemic) [metofluthrin, 2,3,5,6-tetrafluoro-4-(methoxymethyl)benzyl-(EZ)-(1RS,3RS;1RS,3SR)-2,2-dimethyl-3-(prop-1-enyl)cyclopropanecarboxylate]",Release Rate Index,"[2]; solvent Acetone/ethanol (1:1), dry dosing (reference = 1)",1.00
same,Release Rate Index,"[2]; solvent Exxsol D40, wet dosing, relative to acetone/ethanol",1.40
same,Release Rate Index,"[2]; solvent Exxsol D80, wet dosing, relative to acetone/ethanol",1.41
same,Release Rate Index,"[2]; solvent Exxsol D140, wet dosing, relative to acetone/ethanol",0.25
same,Release Rate Index,"[2]; solvent HoTung C11-14, wet dosing, relative to acetone/ethanol",1.37
same,Release Rate Index,"[2]; solvent Isopar G, wet dosing, relative to acetone/ethanol",1.58
same,knockdown,"[3]; 2 mg on A4 18 gsm paper aged at 28° C., for up to 4 hours, 40 m^3 chamber",greater than 40%
same,effectiveness relative to control (mosquito coil 0.04% prallethrin),"[3]; 2 mg on A4 18 gsm paper, at 4 hours of aging at 28° C.",twice as effective as the control
same,knockdown effectiveness compared with reference control,"[3]; A2, A3 and A4 18 gsm paper each treated with 150 mg, 40 m^3 chamber, approx. 28° C., control = mosquito coil containing 0.04% Prallethrin",more effective than the control
same,emanation rate,[4],0.22 mg/h
same,metofluthrin recovered from paper substrate (%),"[5]; packaging APET, dry dosing, acetone/ethanol (1:1), 1 week at 55° C.",87%
same,metofluthrin recovered from paper substrate (%),"[5]; packaging APET, dry dosing, acetone/ethanol (1:1), 2 weeks at 55° C.",82%
same,metofluthrin recovered from paper substrate (%),"[5]; packaging APET, wet dosing, Exxsol D80, 1 week at 55° C.",95%
same,metofluthrin recovered from paper substrate (%),"[5]; packaging APET, wet dosing, Exxsol D80, 2 weeks at 55° C.",100%
same,metofluthrin recovered from paper substrate (%),"[5]; packaging Acrylonitrile methyl acrylate copolymer, wet dosing, Norpar 12, 1 week at 55° C.",98%
same,metofluthrin recovered from paper substrate (%),"[5]; packaging Acrylonitrile methyl acrylate copolymer, wet dosing, Norpar 12, 2 weeks at 55° C.",99%
same,metofluthrin recovered from paper substrate (%),"[5]; packaging Aluminium foil, dry dosing, acetone/ethanol (1:1), 1 week at 55° C.",99%
same,metofluthrin recovered from paper substrate (%),"[5]; packaging Aluminium foil, dry dosing, acetone/ethanol (1:1), 2 weeks at 55° C.",98%
same,metofluthrin recovered from paper substrate (%),"[5]; packaging Aluminium foil, wet dosing, Exxsol D80, 1 week at 55° C.",99%
same,metofluthrin recovered from paper substrate (%),"[5]; packaging Aluminium foil, wet dosing, Exxsol D80, 2 weeks at 55° C.",100%
same,metofluthrin recovered from paper substrate (%),"[5]; packaging CPET, dry dosing, acetone/ethanol (1:1), 1 week at 55° C.",98%
same,metofluthrin recovered from paper substrate (%),"[5]; packaging CPET, dry dosing, acetone/ethanol (1:1), 2 weeks at 55° C.",99%
same,metofluthrin recovered from paper substrate (%),"[5]; packaging CPET, wet dosing, Exxsol D80, 1 week at 55° C.",96%
same,metofluthrin recovered from paper substrate (%),"[5]; packaging CPET, wet dosing, Exxsol D80, 2 weeks at 55° C.",100%
same,metofluthrin recovered from paper substrate (%),"[5]; packaging Glass (bottle), dry dosing, acetone/ethanol (1:1), 1 week at 55° C.",90%
same,metofluthrin recovered from paper substrate (%),"[5]; packaging Glass (bottle), dry dosing, acetone/ethanol (1:1), 2 weeks at 55° C.",81%
same,metofluthrin recovered from paper substrate (%),"[5]; packaging Glass (bottle), wet dosing, Exxsol D80, 1 week at 55° C.",100%
same,metofluthrin recovered from paper substrate (%),"[5]; packaging Glass (bottle), wet dosing, Exxsol D80, 2 weeks at 55° C.",98%
same,metofluthrin recovered from paper substrate (%),"[5]; packaging PEPET, wet dosing, Norpar 12, 1 week at 55° C.",78%
same,metofluthrin recovered from paper substrate (%),"[5]; packaging PEPET, wet dosing, Norpar 12, 2 weeks at 55° C.",77%
same,metofluthrin recovered from paper substrate (%),"[5]; packaging PVC, dry dosing, acetone/ethanol (1:1), 1 week at 55° C.",64%
same,metofluthrin recovered from paper substrate (%),"[5]; packaging PVC, dry dosing, acetone/ethanol (1:1), 2 weeks at 55° C.",46%
same,metofluthrin recovered from paper substrate (%),"[5]; packaging PVC, wet dosing, Exxsol D80, 1 week at 55° C.",73%
same,metofluthrin recovered from paper substrate (%),"[5]; packaging PVC, wet dosing, Exxsol D80, 2 weeks at 55° C.",44%
same,metofluthrin recovered from paper substrate (%),"[5]; packaging heat sealable polyester films, dry dosing, acetone/ethanol (1:1), 2 weeks at 55° C.",92%
same,metofluthrin recovered from paper substrate (%),"[5]; packaging heat sealable polyester films, wet dosing, Exxsol D80, 2 weeks at 55° C.",100%
same,emanation rate when varying initial amount dosed,[6],constant
same,Release Rate Index,"[7]; solvent Dowanol DPM, wet dosing, relative to acetone/ethanol",1.20
same,Release Rate Index,"[7]; solvent Dowanol TPM, wet dosing, relative to acetone/ethanol",1.24
same,Release Rate Index,"[7]; solvent Isopar L, wet dosing, relative to acetone/ethanol",1.75
same,Release Rate Index,"[7]; solvent Sasol C12-13, wet dosing, relative to acetone/ethanol",1.63
same,Release Rate Index,"[7]; solvent acetone/ethanol (1:1), dry dosing (reference = 1)",1.00
same,Release Rate Index,"[7]; solvent n-pentane, dry dosing, relative to acetone/ethanol",1.50
C#CC(OC(=O)C1C(C=C(C)C)C1(C)C)/C(C)=C/CC (centres unmarked) [empenthrin],vapour pressure (volatility at ambient temperature),[1]; 23.6° C.,14 mPa
CC1(C)[C@H](C=C(Cl)Cl)[C@H]1C(=O)OCc1c(F)c(F)c(F)c(F)c1F [fenfluthrin],vapour pressure (volatility at ambient temperature),[1]; 20° C.,1 mPa
